Reference: the NIST ThermoML archive (doi:10.1021/je050196o)

Experiments:
[1] = xn = mol fraction of the nth substance listed; conditions: 101 kPa, Liquid; for viscosity: Capillary tube (Ostwald / Ubbelohde) method; for mass density: Pycnometric method
[2] = 101 kPa, Liquid; for viscosity: Capillary tube (Ostwald / Ubbelohde) method; for mass density: Pycnometric method

C=C(C)C(=O)O [2-methyl-2-propenoic acid] + COCC(C)OC(C)=O
[1]
Conditions	mass density, 298.15 K [kg/m3]	mass density, 308.15 K [kg/m3]	mass density, 318.15 K [kg/m3]	viscosity, 298.15 K [mPa·s]	viscosity, 308.15 K [mPa·s]	viscosity, 318.15 K [mPa·s]
x2 = 0	1009.5	999.4	989.2	1.267	1.078	0.945
x2 = 0.1	1004	994.1	983.9	1.423	1.202	1.033
x2 = 0.2	999	989.3	979.4	1.506	1.301	1.105
x2 = 0.3	993.9	984.1	973.9	1.56	1.345	1.124
x2 = 0.3999	989.1	979.2	968.9	1.585	1.348	1.125
x2 = 0.5	984.8	975	964.8	1.569	1.31	1.1
x2 = 0.6	980.1	970.3	959.9	1.499	1.24	1.049
x2 = 0.7	975.8	966	955.5	1.411	1.168	0.988
x2 = 0.7999	970.8	960.9	950.5	1.301	1.081	0.929
x2 = 0.9	965.8	956	945.6	1.175	0.985	0.844

C=C(C)C(=O)O [2-methyl-2-propenoic acid]
[2]
Conditions	mass density [kg/m3]	viscosity [mPa·s]
298.15 K	1009.5	1.267
308.15 K	999.4	1.078
318.15 K	989.2	0.945

COCC(C)OC(C)=O (configuration not stated) [1-methoxy-2-propyl acetate] + C=C(C)C(=O)O
[1], x1 = 1
Conditions	mass density [kg/m3]	viscosity [mPa·s]
298.15 K	961.4	1.071
308.15 K	951.4	0.904
318.15 K	940.7	0.777

C=C(C)C(=O)OCCO [2-hydroxyethyl 2-methyl-2-propenoate] + COCC(C)OC(C)=O
[1]
Conditions	mass density, 298.15 K [kg/m3]	mass density, 308.15 K [kg/m3]	mass density, 318.15 K [kg/m3]	viscosity, 298.15 K [mPa·s]	viscosity, 308.15 K [mPa·s]	viscosity, 318.15 K [mPa·s]
x2 = 0	1067.1	1057.7	1048.6	5.784	4.194	3.181
x2 = 0.1	1056.4	1046.7	1037.3	4.764	3.519	2.71
x2 = 0.2	1045.7	1035.9	1026.1	3.84	2.9	2.273
x2 = 0.3	1034.9	1025	1015.1	3.222	2.477	1.969
x2 = 0.4	1024.1	1014.2	1004.1	2.719	2.123	1.709
x2 = 0.5	1013.5	1003.5	993.3	2.257	1.79	1.461
x2 = 0.6	1003	993	982.6	1.922	1.55	1.284
x2 = 0.7	992.6	982.5	972	1.651	1.341	1.117
x2 = 0.8	982.2	971.9	961.3	1.389	1.147	0.969
x2 = 0.8999	971.8	961.5	950.8	1.234	1.052	0.889

COCC(C)OC(C)=O (configuration not stated) [1-methoxy-2-propyl acetate] + C=C(C)C(=O)OCCO
[1], x1 = 1
Conditions	mass density [kg/m3]	viscosity [mPa·s]
298.15 K	961.4	1.071
308.15 K	951.4	0.904
318.15 K	940.7	0.777

C=C(C)C(=O)OCc1ccccc1 [benzyl methacrylate]
[2]
Conditions	mass density [kg/m3]	viscosity [mPa·s]
298.15 K	1034.7	2.302
308.15 K	1025.8	1.885
318.15 K	1017	1.58

C=C(C)C(=O)OCCO [2-hydroxyethyl 2-methyl-2-propenoate]
[2]
Conditions	mass density [kg/m3]	viscosity [mPa·s]
298.15 K	1067.1	5.784
308.15 K	1057.7	4.194
318.15 K	1048.6	3.181

C=C(C)C(=O)OCc1ccccc1 [benzyl methacrylate] + COCC(C)OC(C)=O
[1]
Conditions	mass density, 298.15 K [kg/m3]	mass density, 308.15 K [kg/m3]	mass density, 318.15 K [kg/m3]	viscosity, 298.15 K [mPa·s]	viscosity, 308.15 K [mPa·s]	viscosity, 318.15 K [mPa·s]
x2 = 0	1034.7	1025.8	1017	2.302	1.885	1.58
x2 = 0.1	1029	1019.9	1010.9	2.245	1.84	1.544
x2 = 0.2	1023.1	1013.8	1004.6	2.123	1.743	1.465
x2 = 0.3	1017	1007.6	998.2	1.991	1.638	1.377
x2 = 0.4	1010.6	1001.1	991.5	1.857	1.53	1.289
x2 = 0.4999	1003.8	994.2	984.4	1.694	1.399	1.183
x2 = 0.6	996.6	986.9	976.9	1.559	1.286	1.086
x2 = 0.7	989	979.2	969	1.434	1.189	1.007
x2 = 0.8	980.7	970.7	960.3	1.327	1.105	0.937
x2 = 0.9	971.9	961.8	951.2	1.232	1.028	0.874

COCC(C)OC(C)=O (configuration not stated) [1-methoxy-2-propyl acetate]
[2]
Conditions	mass density [kg/m3]	viscosity [mPa·s]
298.15 K	961.4	1.071
308.15 K	951.4	0.904
318.15 K	940.7	0.777

COCC(C)OC(C)=O (configuration not stated) [1-methoxy-2-propyl acetate] + C=C(C)C(=O)OCc1ccccc1
[1], x1 = 1
Conditions	mass density [kg/m3]	viscosity [mPa·s]
298.15 K	961.4	1.071
308.15 K	951.4	0.904
318.15 K	940.7	0.777
